Measured values from PMC12040169 (PLOS Biology, 2025).

Experiment: in vitro
Settings: human, hela cells, % viability

| SMILES | viability at 28.5 h, 10 µM [%] |
| --- | --- |
| COc1ccccc1CN(C)S(=O)(=O)c1ccc(S(N)(=O)=O)cc1 [CBK306008] | 113 |
| Cc1cc(Cl)c(S(=O)(=O)Nc2cccnc2)cc1OCC(=O)NC1CCCCC1 [CBK266773] | 92.7 |
| O=C(C/C=N/OCc1ccccc1)c1sccc1Cl [CBK021611] | 96 |
| CN(C)S(=O)(=O)c1ccc(C(=O)Nc2cccc(N3Cc4ccccc4C3)c2)cc1 [CBK266025] | 98.8 |
| Cc1nc(CNC(=O)NC2CCCN(c3ncccn3)C2)cs1 (stereo not shown) [CBK305640] | 95.3 |
| O=C(NCc1ccco1)c1cc(-c2ccc(Cl)cc2)cnc1N1CCOCC1 [CBK076352] | 87 |
| Cc1ccc2[nH]c(C3CCCCN3C(=O)c3ccncc3)nc2c1 (stereo not shown) [CBK284000] | 103 |
| CC(=O)NCCSc1nc2ccccc2nc1N1CCCC1 [CBK103696] | 99 |
| CN1CCN(c2nc(-c3cccc4ncccc34)cnc2N)CC1 [CBK063465] | 107 |
| COCCCOc1cc(N2CCCC2)ncn1 [CBK115896] | 102 |
| COc1ccccc1CN(CCCN)C(=O)NC(C)c1ccccc1 (stereo not shown) [CBK034667C] | 87.3 |
| O=C(Nc1ncnc2nc[nH]c12)NC1CCCCC1 [CBK022860] | 97.7 |
| O=C(O)CN(Cc1ccccc1)Cc1ccccc1 [CBK260903] | 104 |
| CCN(CC)CCSc1nc(O)c(-c2ccccc2)c(=O)n1-c1ccccc1 [CBK263335C] | 111 |
| O=C(O)c1cccc2c1C(=O)N(c1ccccc1)C2 [CBK101054] | 91.4 |
| COc1ccc(C(=O)N2CCC3(CCN(Cc4ccc(Cl)c(Cl)c4)C3)C2)cc1OC (stereo not shown) [CBK132150] | 97.3 |
| O=C(O)C1CCN(c2ncnc3scc(-c4ccccc4)c23)CC1 [CBK076784] | 95.6 |
| CC1(C)Cc2ccccc2C(NCC(=O)O)=N1 [CBK262562] | 83 |
| COc1ccc(OCCN2CCc3ccccc3C2)cc1 [CBK126403] | 94.8 |
| Cc1ccc(C(=O)NCCN2CCOCC2)cc1S(=O)(=O)N1CCCCC1 [CBK267329] | 86.2 |
| COC(=O)c1c(NC(=S)NC(=O)c2c(Br)c(C)nn2C)sc2c1CCCCCC2 [CBK267486] | 94.5 |
| Cc1nnc(SCC(=O)NC(C)(C)C)n1NCc1cccc(Br)c1 [CBK266517] | 101 |

| SMILES | viability at 28.5 h, 10 µM [%] |
| --- | --- |
| CC(C)(C)C(=O)/N=c1/[nH]nc(-c2cccnc2)s1 [CBK288203] | 98.3 |
| Nc1nnc(Cn2c(-c3nonc3N)nc3ccccc32)s1 [CBK263854] | 117 |
| Nc1cc(O)nc(SCC(=O)N2CCN(C(c3ccccc3)c3ccccc3)CC2)n1 [CBK268014] | 94 |
| O=C(Cc1cc(F)cc(F)c1F)Nc1cccc2[nH]ccc12 [CBK159650] | 89 |
| O=C(c1c(F)cccc1Cl)N1CCN(Cc2ccc3c(c2)OCO3)CC1 [CBK074724] | 93.9 |
| CC(=O)NCCOc1nccnc1OCc1ccc(Cl)c(Cl)c1 [CBK161582] | 96.4 |
| CCOC(=O)c1cccc(-c2cc3ccccc3o2)n1 [CBK149243] | 114 |
| Cc1cc(/C=C(\C#N)c2nc3ccccc3[nH]2)c(C)n1-c1ccc(C(=O)O)cc1 [CBK267262] | 94.7 |
| FC(F)(F)c1cc(/C=C/c2cccs2)n[nH]1 [CBK020924] | 92.1 |
| Cc1[nH]c(=S)[nH]c(=O)c1Cc1cccc2ccccc12 [CBK115563] | 82.4 |
| CCCNc1cncc(-c2cccc(CO)c2)n1 [CBK065433] | 95.7 |
| COc1cccc(Nc2[nH]nnc2C(=O)Nc2cccc(C)c2C)c1 [CBK288028] | 102 |
| c1coc(C2N3CCC4(CC3)c3[nH]c5ccccc5c3CCN24)c1 (stereo not shown) [CBK282862] | 112 |
| O=C(NCCO)C1CCCN(S(=O)(=O)c2ccc3ccccc3c2)C1 (stereo not shown) [CBK270090] | 83.7 |
| Cc1c(C(=O)N2CCC(n3cncn3)CC2)sc2cccc(F)c12 [CBK305520] | 103 |
| COc1ccccc1CC(=O)N1[C@H](Cc2ccccc2)C[C@@H]2NCCCCC[C@H]21 [CBK285978] | 96.3 |
| O=C(CSCc1ccc(Cl)c(Cl)c1)Nc1ncccn1 [CBK269998] | 89.7 |
| COc1cc(-c2cnc3[nH]c(=O)n([C@@H](CO)C(C)C)c3n2)cc(OC)c1OC [CBK064471] | 105 |
| Cc1ccc(S(=O)(=O)CC(=O)N2CCCC3(CCN(Cc4ccccc4)C3)C2)cc1 (stereo not shown) [CBK137098T] | 90.7 |
| Oc1cccc(/C=N/c2ccc(Cc3ccc(/N=C/c4cccc(O)c4)cc3)cc2)c1 [CBK261230] | 103 |
| Cc1ccc(CS(=O)(=O)N(C)C2CCN(C)C(C)C2)c(F)c1 (stereo not shown) [CBK305484] | 90.4 |
| C=Cn1cc(CN2C3CCC2CC(O)(c2ccc(F)cc2)C3)c(C)n1 (stereo not shown) [CBK282742] | 80.6 |

| SMILES | viability at 28.5 h, 10 µM [%] |
| --- | --- |
| N#Cc1cccc(Nc2cncc(-c3cccs3)n2)c1 [CBK066030] | 95.4 |
| Nc1nc2c([C@@H]3O[C@H](CO)[C@H](O)C3O)c[nH]c2c(=O)[nH]1 (stereo partly shown) [CBK201292] | 94.5 |
| CCN(CC1CCN(C)C1)C(=O)c1cc(COc2cccc(F)c2)[nH]n1 (stereo not shown) [CBK307239] | 88.8 |
| Nc1ncc(-c2ccc(C(=O)N3CCOCC3)cc2)nc1-c1ccc(Cl)s1 [CBK138510] | 93.6 |
| CN1C(=O)COc2ccccc2C/C=C/C[C@H]2NCCC[C@H]21 [CBK292156] | 80.9 |
| CCn1cc(C2CN(S(=O)(=O)c3c(C)c(C)cc(C)c3C)CCO2)cn1 (stereo not shown) [CBK306171] | 63.8 |
| COc1ccc(NC(=O)C2C3CCC(C3)C2C(=O)O)cc1OC (stereo not shown) [CBK263684] | 95.3 |
| CN1CCN(C(=O)c2cccc(-c3ncc(OCC(F)(F)F)nc3N)c2)CC1 [CBK145196] | 91.3 |
| CC(C(=O)NCCc1ccncc1)n1cnc2ccccc21 (stereo not shown) [CBK282202] | 103 |
| Cc1ccccc1OC(C)C(=O)Nn1cnnc1 (stereo not shown) [CBK268619] | 96.2 |
| Cc1ccc(C)c(NC(=S)NCCc2ccc(S(N)(=O)=O)cc2)c1 [CBK264879] | 100 |
| O=C(COC(=O)C1CCN(S(=O)(=O)c2cccc3cccnc23)CC1)c1ccc([N+](=O)[O-])cc1 [CBK264412] | 101 |
| CN(CC(=O)N1CCN(Cc2ccccc2)CC1)S(=O)(=O)c1ccc2ccccc2c1 [CBK267117] | 90.1 |
| CCOC(=O)CN1C(c2ccccc2O)Nc2ccc(Br)cc2C1c1ccccc1 (stereo not shown) [CBK263130] | 90.5 |
| O=C(c1cn2cc(-c3cccs3)n(CC3CC3)c(=O)c2n1)N1CC(O)C1 [CBK306979] | 97.4 |
| O=C(Cc1ccc(Cl)c(Cl)c1)N1CCC2(CCN(C(=O)Cc3c[nH]c4ccccc34)C2)C1 (stereo not shown) [CBK131426] | 106 |
| O=c1c(N2CCNCC2)nccn1CCOc1cccc(Cl)c1Cl [CBK013463] | 92.2 |
| CN1CCN(c2ccc(-c3cc(Nc4cccc(OCc5ccccc5)c4)ncn3)cn2)CC1 [CBK090918] | 113 |
| NC(=O)c1ccc(-c2cnc3[nH]c(=O)n(CCCN4CCOCC4)c3n2)cc1 [CBK065092] | 102 |
| O=S1(=O)CCN(Cc2cnn(-c3cncnc3)n2)CC1 [CBK112878] | 100 |
